In the supplement of paper PMC6045584:
± gives the standard deviation of the averaged measurements.

Legend:
PLX-4720 = compound: CCCS(=O)(=O)Nc1ccc(F)c(C(=O)c2c[nH]c3ncc(Cl)cc23)c1F [PLX-4720]; experiment: area under dose-response curve of surviving fraction (unscaled, Aref=0) (surviving fraction x log10(nM)); higher = more resistant; settings: exposure time: 5 days; dose range 0.5-1000 nM
Procedure, shortened: (§1)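 Inhibitor was applied to tumour cell lines at eight concentrations (0.5 to 1000 nM) for five days in 384-well plates. Luminescence from CellTiter-Glo, scaled to DMSO-only wells, gave surviving fractions in three screens per line, and these were fitted by 3-parameter logistic regression with the drc R package. The area under the curve is an unscaled activity area. Aref was 0, and dose was on a log10 scale.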

GEMCITABINE = compound: Nc1ccn([C@@H]2O[C@H](CO)[C@@H](O)C2(F)F)c(=O)n1 [GEMCITABINE]; experiment: as above; settings: exposure time: 5 days; dose range 0.5-1000 nM
Procedure, shortened: as §1

VINORELBINE = compound: CCC1=C[C@@H]2CN(C1)Cc1c([nH]c3ccccc13)[C@@](C(=O)OC)(c1cc3c(cc1OC)N(C)[C@H]1[C@@](O)(C(=O)OC)[C@H](OC(C)=O)[C@]4(CC)C=CCN5CC[C@]31[C@@H]54)C2 [VINORELBINE]; experiment: as above; settings: exposure time: 5 days; dose range 0.5-1000 nM
Procedure, shortened: as §1

MK0752 = compound: O=C(O)CC[C@H]1CC[C@@](c2cc(F)ccc2F)(S(=O)(=O)c2ccc(Cl)cc2)CC1 [MK0752]; experiment: as above; settings: exposure time: 5 days; dose range 0.5-1000 nM
Procedure, shortened: as §1

[1] = compound: O=C(NOCC1CC1)c1ccc(F)c(F)c1Nc1ccc(I)cc1Cl; experiment: surviving fraction relative to DMSO-only wells; higher = less growth inhibition; settings: exposure time: 5 days
Procedure, shortened: (§2)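 Viability was determined by CellTiter-Glo luminescence, expressed as surviving fraction normalised to the median of DMSO-only wells. The cells were log-phase tumour cell lines seeded at 250–500 per well in 384-well plates and, after 24 hours, exposed continuously for five days to inhibitors at 0.5, 1, 5, 10, 50, 100, 500 and 1000 nM. Three screens per line were run, keeping only lines with replicate Pearson r >0.7 and median Z' >0.3.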

ERLOTINIB = compound: C#Cc1cccc(Nc2ncnc3cc(OCCOC)c(OCCOC)cc23)c1 [ERLOTINIB]; experiment: as above; settings: exposure time: 5 days
Procedure, shortened: as §2

Test System | area under dose-response curve (PLX-4720) | area under dose-response curve (GEMCITABINE) | area under dose-response curve (VINORELBINE) | area under dose-response curve (MK0752) | surviving fraction ([1]; 0.5 nM) | surviving fraction ([1]; 1 nM) | surviving fraction ([1]; 5 nM) | surviving fraction ([1]; 10 nM) | surviving fraction ([1]; 50 nM) | surviving fraction ([1]; 100 nM) | surviving fraction ([1]; 500 nM) | surviving fraction ([1]; 1000 nM) | surviving fraction (ERLOTINIB; 0.5 nM) | surviving fraction (ERLOTINIB; 1 nM) | surviving fraction (ERLOTINIB; 5 nM) | surviving fraction (ERLOTINIB; 10 nM) | surviving fraction (ERLOTINIB; 50 nM) | surviving fraction (ERLOTINIB; 100 nM) | surviving fraction (ERLOTINIB; 500 nM) | surviving fraction (ERLOTINIB; 1000 nM)
SG32 HEADNECK | 2 | 1.77 | 1.95 | 3.82 | 0.546 ± 0.12 | 0.858 ± 0.042 | 0.883 ± 0.22 | 1.03 ± 0.049 | 0.701 ± 0.085 | 0.805 ± 0.065 | 0.751 ± 0.059 | 0.818 ± 0.079 | 1.14 ± 0.11 | 1.11 ± 0.092 | 1.1 ± 0.29 | 1.03 ± 0.18 | 1.12 ± 0.14 | 1.11 ± 0.092 | 0.795 ± 0.067 | 1.26 ± 0.28
HCC70 BREAST | 3.36 | 1.12 | 1.66 | 3.56 | 0.939 ± 0.029 | 0.963 ± 0.03 | 1.02 ± 0.049 | 0.956 ± 0.058 | 0.818 ± 0.041 | 0.773 ± 0.052 | 0.601 ± 0.022 | 0.528 ± 0.033 | 1.1 ± 0.094 |  | 1.15 ± 0.071 | 1.06 ± 0.097 | 1.03 ± 0.066 | 0.992 ± 0.022 | 1.03 ± 0.044 | 0.952 ± 0.096
MHM BONE | 3.27 | 1.46 | 2.21 | 3.45 | 0.947 ± 0.024 | 0.906 ± 0.095 | 0.992 ± 0.013 | 1.01 ± 0.015 | 0.974 ± 0.028 | 0.971 ± 0.048 | 0.926 ± 0.022 | 0.931 ± 0.032 | 1.02 ± 0.036 | 1.03 ± 0.035 |  |  | 1.04 ± 0.016 | 1.064 ± 0.001 | 1.038 ± 0.01 | 0.998 ± 0.03
NY BONE | 3.09 | 1.11 | 1.35 | 3.54 | 0.923 ± 0.029 | 0.9257 ± 0.0055 | 0.953 ± 0.02 | 0.975 ± 0.023 | 0.97 ± 0.026 | 0.993 ± 0.028 | 0.93 ± 0.024 | 0.921 ± 0.037 | 1.01 ± 0.019 | 0.963 ± 0.029 |  | 1.05 ± 0.037 |  |  | 0.983 ± 0.01 | 
JIMT1 BREAST | 3.05 | 1.44 | 1.24 | 3.29 | 0.957 ± 0.056 | 0.967 ± 0.039 | 0.997 ± 0.032 | 0.997 ± 0.02 | 0.955 ± 0.013 | 0.956 ± 0.017 | 0.8092 ± 0.0039 | 0.7653 ± 0.0068 | 1 ± 0.012 | 0.994 ± 0.044 |  | 0.9948 ± 0.0084 | 1 ± 0.015 | 1.02 ± 0.076 | 0.809 ± 0.025 | 0.731 ± 0.031
RDES SOFT TISSUE | 2.9 | 1.4 | 1.91 | 3.76 | 1.33 ± 0.025 | 1.27 ± 0.071 | 1.32 ± 0.15 | 1.33 ± 0.093 | 1.28 ± 0.1 | 1.29 ± 0.085 | 1.37 ± 0.16 | 1.24 ± 0.082 | 1.21 ± 0.057 | 1.28 ± 0.14 | 1.12 ± 0.18 | 1.27 ± 0.015 |  | 1.28 ± 0.1 | 1.24 ± 0.025 | 1.32 ± 0.1
T47D BREAST | 3.2 | 2.72 | 1.99 | 3.56 | 0.8871 ± 0.0062 | 0.999 ± 0.027 | 0.943 ± 0.018 | 1.008 ± 0.0089 | 0.899 ± 0.011 | 1.06 ± 0.04 | 0.996 ± 0.075 | 0.977 ± 0.07 | 1.13 ± 0.059 | 1.08 ± 0.052 | 1.13 ± 0.084 | 1.09 ± 0.028 | 1.18 ± 0.039 | 1.17 ± 0.048 | 1.16 ± 0.084 | 1.12 ± 0.039
HU09 BONE | 3.1 | 0.594 | 1.47 | 3.54 | 0.968 ± 0.024 | 1 ± 0.15 | 1.06 ± 0.073 | 1.06 ± 0.11 | 0.995 ± 0.1 | 1.03 ± 0.12 | 0.894 ± 0.044 | 0.905 ± 0.066 | 1.08 ± 0.11 | 0.986 ± 0.073 | 1.12 ± 0.073 | 1.04 ± 0.1 | 1.11 ± 0.029 | 1.1 ± 0.024 | 1.04 ± 0.061 | 0.965 ± 0.062
NCIH441 LUNG | 3.08 | 0.954 | 2.25 | 3.43 | 0.939 ± 0.093 | 0.968 ± 0.084 | 0.945 ± 0.026 | 0.984 ± 0.041 | 0.909 ± 0.013 | 0.846 ± 0.031 | 0.722 ± 0.023 | 0.757 ± 0.053 | 1.2 ± 0.086 | 1.16 ± 0.14 | 1.09 ± 0.083 | 1.08 ± 0.12 | 1.08 ± 0.067 | 1.11 ± 0.1 | 0.992 ± 0.086 | 1.17 ± 0.12
ZR751 BREAST | 2.73 | 2.02 | 1.87 | 3.79 | 0.804 ± 0.14 | 0.868 ± 0.022 | 0.806 ± 0.049 | 0.814 ± 0.056 | 0.697 ± 0.071 | 0.846 ± 0.03 | 0.677 ± 0.03 | 0.682 ± 0.011 | 1.01 ± 0.04 | 1.29 ± 0.17 | 1.14 ± 0.14 | 1.05 ± 0.087 | 0.926 ± 0.14 | 0.881 ± 0.14 | 0.71 ± 0.18 | 0.766 ± 0.045
S68 BREAST | 2.92 | 1.22 | 1.53 | 3.26 | 0.917 ± 0.13 | 0.918 ± 0.21 | 0.901 ± 0.063 | 1.04 ± 0.27 | 0.801 ± 0.18 | 0.852 ± 0.13 | 0.669 ± 0.1 | 0.544 ± 0.096 | 1.05 ± 0.32 | 1.07 ± 0.37 | 0.808 ± 0.13 | 1.15 ± 0.036 | 1.14 ± 0.25 | 1.11 ± 0.3 | 0.743 ± 0.079 | 0.564 ± 0.03
CAL51 BREAST | 3.19 | 0.99 | 1.28 | 3.32 | 0.975 ± 0.021 | 1 ± 0.032 | 0.981 ± 0.055 | 0.993 ± 0.017 | 0.934 ± 0.058 | 0.944 ± 0.042 | 0.878 ± 0.032 | 0.8495 ± 0.0082 | 0.969 ± 0.04 | 0.993 ± 0.069 | 1.05 ± 0.067 | 1.02 ± 0.062 | 1.07 ± 0.045 | 1.07 ± 0.036 | 1.09 ± 0.059 | 1.061 ± 0.0043
